Laboratory results from PMC6934184, “Selective DNA-PKcs inhibition extends the therapeutic index of localized radiotherapy and chemotherapy” (The Journal of Clinical Investigation, 2019).

Molecular target: T1, STK22B (TSSK2) (Homo sapiens, UniProt Q96PF2)
T1 construct: purchased Thermo Fisher Scientific (Life Technologies) SelectScreen
Test: SelectScreen Z'LYTE
Assay type: biochemical
Outline: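 Percent values come from Thermo SelectScreen profiling of NU5455, combining activity and binding assays. CSF1R was run in Z'LYTE format at Km app ATP, and CAMK1 in Adapta format with ATP listed at 10.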

T1 sequence (Q96PF2 whole entry): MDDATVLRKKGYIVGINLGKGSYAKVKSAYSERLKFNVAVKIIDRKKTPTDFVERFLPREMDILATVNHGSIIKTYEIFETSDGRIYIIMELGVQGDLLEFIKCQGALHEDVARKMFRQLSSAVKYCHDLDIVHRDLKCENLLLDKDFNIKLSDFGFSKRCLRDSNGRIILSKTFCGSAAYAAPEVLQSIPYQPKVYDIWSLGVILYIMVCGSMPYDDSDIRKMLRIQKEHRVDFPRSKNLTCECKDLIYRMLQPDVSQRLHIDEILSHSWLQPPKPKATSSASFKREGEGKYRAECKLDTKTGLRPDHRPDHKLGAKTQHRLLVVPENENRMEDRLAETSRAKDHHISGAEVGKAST

CN(C(=O)CN1CCOCC1)c1ccc2sc3c(-c4cccc5c(=O)cc(N6CC7CCC(C6)O7)oc45)cccc3c2c1 [NU5455]
inhibition at 1 µM: 2.8%
